These are literature values, as cited in article PMC6838683, “Discovery of Human Signaling Systems: Pairing Peptides to G Protein-Coupled Receptors” (Cell, 2019).

Like-named read-outs stand apart in the source and are kept apart here. No end group written: not given here.

This data set has as its system human GPCRs. Further details: method as in Guide to Pharmacology database. The following applies: cited from earlier work. The source says: Supplement mmc1.xlsx, sheet "HumanGPCRLigands" | column: pKi_value; pKd_value; pEC50_value; pIC50_value
[1] abbreviates: receptor CCR2 (ccr2_human, P41597), max reported value, ref Guide to Pharmacology database.
Where [2] appears, read: receptor CCR3 (ccr3_human, P51677), max reported value, ref Guide to Pharmacology database.
[3] abbreviates: receptor CCR5 (ccr5_human, P51681), max reported value, ref Guide to Pharmacology database.
[4] abbreviates: receptor CCR1 (ccr1_human, P32246), max reported value, ref Guide to Pharmacology database.
Setting [5] is: receptor CCR7 (ccr7_human, P32248), max reported value, ref Guide to Pharmacology database.
The mark [6] stands for this setting: receptor SSTR1 (ssr1_human, P30872), max reported value, ref Guide to Pharmacology database.
Setting [7] is: receptor SSTR2 (ssr2_human, P30874), max reported value, ref Guide to Pharmacology database.
The mark [8] stands for this setting: receptor SSTR3 (ssr3_human, P32745), max reported value, ref Guide to Pharmacology database.
The mark [9] stands for this setting: receptor SSTR4 (ssr4_human, P31391), max reported value, ref Guide to Pharmacology database.
Where [10] appears, read: receptor SSTR5 (ssr5_human, P35346), max reported value, ref Guide to Pharmacology database.
Setting [11] is: receptor CXCR1 (cxcr1_human, P25024), max reported value, ref Guide to Pharmacology database.
[12] abbreviates: receptor CXCR2 (cxcr2_human, P25025), max reported value, ref Guide to Pharmacology database.
Where [13] appears, read: receptor CXCR3 (cxcr3_human, P49682), max reported value, ref Guide to Pharmacology database.
[14] abbreviates: receptor vipr1_human (VIPR1, P32241), max reported value, ref Guide to Pharmacology database.
[15] abbreviates: receptor gnrhr_human (GNRHR, P30968), max reported value, ref Guide to Pharmacology database.
Setting [16] is: receptor RXFP4 (rl3r2_human, Q8TDU9), max reported value, ref Guide to Pharmacology database.
[17] abbreviates: receptor pacr_human (ADCYAP1R1, P41586), max reported value, ref Guide to Pharmacology database.
[18] abbreviates: receptor vipr2_human (VIPR2, P41587), max reported value, ref Guide to Pharmacology database.
Where [19] appears, read: receptor pth2r_human (PTH2R, P49190), max reported value, ref Guide to Pharmacology database.
The mark [20] stands for this setting: receptor OPRD1 (oprd_human, P41143), max reported value, ref Guide to Pharmacology database.
Setting [21] is: receptor OPRM1 (oprm_human, P35372), max reported value, ref Guide to Pharmacology database.
Where [22] appears, read: receptor apj_human (APLNR, P35414), max reported value, ref Guide to Pharmacology database.
Where [23] appears, read: receptor mrgx1_human (MRGPRX1), Class A orphans, max reported value, ref Guide to Pharmacology database.
[24] abbreviates: receptor OPRK1 (oprk_human, P41145), max reported value, ref Guide to Pharmacology database.
The mark [25] stands for this setting: receptor gipr_human (GIPR, P48546), max reported value, ref Guide to Pharmacology database.

CCL2: the pIC50_value under setting [1] is given as 10.2. The pKi_value reads like this: under setting [2], 7.8; under setting [3], 7.5.
CCL3: the pKi_value is recorded as 10.2 under setting [4] and 8.9 under setting [3].
CCL5: the pKi_value by setting is: under setting [4], 8.2; under setting [2], 9.3; under setting [3], 9.7. In addition, where the note is “receptor gpr75_human (GPR75), Class A orphans, max reported value, ref Guide to Pharmacology database”, the pEC50_value is reported as 9.6.
With CCL7, the pKi_value is, setting by setting: under setting [4], 8.1; under setting [2], 9.2; under setting [3], 7.5. Besides, the pIC50_value under setting [1] is 8.7.
On to CCL11, for which the pIC50_value runs as follows: under setting [1], 7.7; under setting [2], 9; under setting [3], 7.7. Further, the pKi_value under setting [2] was 10.
As to CCL13, the pIC50_value is, setting by setting: under setting [1], 8.7; under setting [2], 10.3.
For the substance CCL19, under setting [5], the pIC50_value is on record as 9 and the pKd_value is 10. Moreover, for the setting “receptor CCRL2 (ccrl2_human, O00421), max reported value, ref Guide to Pharmacology database”, the pIC50_value is 7.4.
Turning to CCL20, the pIC50_value (receptor CCR6 (ccr6_human, P51684), max reported value, ref Guide to Pharmacology database) is given as 8.5.
With CCL26, the pIC50_value by setting is: under setting [1], 8.5; under setting [2], 8.9.
On to CST-17, for which the pKi_value is, setting by setting: under setting [6], 9.6; under setting [7], 9.3; under setting [8], 9.9; under setting [9], 9.6; under setting [10], 10.2.
For the substance CXCL1, the pKi_value is recorded as 6.4 under setting [11] and 9.7 under setting [12].
For CXCL2, the pIC50_value under setting [12] is 9.1.
As to CXCL3, the pIC50_value under setting [12] is on record as 9.2.
As for CXCL5, under setting [12], the pIC50_value is recorded as 9.
In the case of CXCL6, the pKi_value under setting [11] is reported as 7. Besides, the pKd_value under setting [12] is reported as 7.
With CXCL8, under setting [11], the pKd_value was 8.1 and the pKi_value was 9.5. Further, the pKi_value under setting [12] is 9.5.
Regarding CXCL9, the pKi_value under setting [13] was 8.3.
With CXCL10, the pKi_value under setting [13] was 9.8.
With CXCL11, the pKi_value under setting [13] was 10.5.
Consider CXCL13, for which the pKd_value (receptor CXCR5 (cxcr5_human, P32302), max reported value, ref Guide to Pharmacology database) is listed as 7.3.
As to GHRH, the pKi_value under setting [14] is 6.2.
GnRH I: under setting [15], the pEC50_value is reported as 10, the pIC50_value is 8.6, the pKd_value is 8.5 and the pKi_value is 8.4.
For the substance “GnRH II (QHWSHGWYPG; ends and bridges not checked; UniProt O43555 24-33, looked up)”, under setting [15], the pIC50_value is 7.9.
Turning to “INSL5 (Insulin-like peptide INSL5 B … KESVRLCGLEYIRTVIYICASSRW; Insulin-like peptide INSL5 A … QDLQTLCCTDGCSMTDLSALC; UniProt Q9Y5Q6 23-46; Q9Y5Q6 115-135, looked up)”, under setting [16], the pEC50_value is 8.9, the pIC50_value is given as 8.9 and the pKi_value is listed as 8.8.
For PACAP-38 [reference compound], the pEC50_value runs as follows: under setting [17], 10.3; under setting [14], 9.7; under setting [18], 9.3. The pKi_value by setting is: under setting [17], 9; under setting [14], 8.2.
PTHrP-(1-36): the pIC50_value (receptor pth1r_human (PTH1R, Q03431), max reported value, ref Guide to Pharmacology database) was 6.5 and the pIC50_value under setting [19] was 5.7.
With “PrRP-20 (TPDINPAWYASRGIRPVGRF; not fully specified; ends and bridges not checked; UniProt P81277 34-53, looked up)”, the pKi_value (receptor PRLHR (prlhr_human, P49683), max reported value, ref Guide to Pharmacology database) was 9.6.
On to “QRFP43 (QDEGSEATGFLPAAGEKTSGPLGNLAEELNGYSRKKGGFSFRF-NH2; UniProt P83859 91-133, looked up)”, for which the pEC50_value (receptor QRFPR (qrfpr_human, Q96P65), max reported value, ref Guide to Pharmacology database) is listed as 8.6.
With SRIF-14, the pKi_value by setting is: under setting [6], 9.5; under setting [7], 10.5; under setting [8], 10; under setting [9], 9.3; under setting [10], 9.9.
Consider T-kinin (ISRPPGFSPFR), for which, for the setting “receptor bkrb1_human (BDKRB1, P46663), max reported value, ref Guide to Pharmacology database”, the pKi_value is given as 5.2.
Regarding TIP39, the pIC50_value under setting [19] is given as 9.2.
As to VIP, under setting [17], the pEC50_value is on record as 7.8, the pIC50_value is given as 6 and the pKi_value is on record as 6.3. Under setting [14], the pEC50_value was 7.9, the pIC50_value is recorded as 8 and the pKi_value is recorded as 9. Under setting [18], the pEC50_value is reported as 7.3, the pIC50_value is 8.3 and the pKi_value was 8.7.
With [Leu]enkephalin, the pKi_value under setting [20] is recorded as 8.7 and the pKi_value under setting [21] is reported as 8.1.
In the case of “amylin (KCNTATCATQRLANFLVHSSNNFGAILSSTNVGSNTY; not fully specified; cysteine pairing not given here; UniProt P10997 34-70, looked up)”, for the setting “receptor calcr_human (CALCR), Calcitonin receptors, Class B1 (Secretin), max reported value, ref Guide to Pharmacology database”, the pEC50_value is reported as 9.2.
As for angiotensin II (DRVYIHPF), the pIC50_value (receptor agtr1_human (AGTR1, P30556), max reported value, ref Guide to Pharmacology database) is reported as 9.3. Besides, under “receptor agtr2_human (AGTR2, P50052), max reported value, ref Guide to Pharmacology database”, the pKd_value was 10.2.
apelin-13: the pIC50_value is reported as 9.5.
On to apelin-17, for which, under setting [22], the pIC50_value is given as 9.
As for “apelin-36 (LVQPRGSRNGPGPWQGGRRKFRRQRPRLSHKGPMPF; not fully specified; UniProt Q9ULZ1 42-77, looked up)”, the pIC50_value under setting [22] is 8.6.
Turning to bovine adrenal medulla peptide 8-22, under setting [23], the pEC50_value is 7.8, the pKd_value is 8 and the pKi_value is reported as 7.7.
For calcitonin, the pEC50_value (receptor calcr_human (CALCR, P30988), Calcitonin receptors, max reported value, ref Guide to Pharmacology database) was 11.2.
For corticotrophin-releasing hormone, the pKd_value runs as follows: (receptor crfr1_human (CRHR1, P34998), max reported value, ref Guide to Pharmacology database) 9; (receptor crfr2_human (CRHR2, Q13324), max reported value, ref Guide to Pharmacology database) 7.4.
For dynorphin A, the pKi_value is 7.4 under setting [20], 10.8 under setting [24] and 8.1 under setting [21].
dynorphin A-(1-8): the pKi_value under setting [20] was 8.4, the pKi_value under setting [24] is on record as 9.9 and the pKi_value under setting [21] was 8.4.
Take dynorphin A-(1-13): the pKi_value under setting [20] is 7.8, the pKi_value under setting [24] was 10.7 and the pKi_value under setting [21] is reported as 8.3.
In the case of “endothelin-2 (CSCSSWLDKECVYFCHLDIIW; ends and bridges not checked; cysteine pairing not given here; UniProt P20800 49-69, looked up)”, the pIC50_value (receptor ednra_human (EDNRA, P25101), max reported value, ref Guide to Pharmacology database) is 8.2.
With endothelin-3, the pKd_value (receptor ednrb_human (EDNRB, P24530), max reported value, ref Guide to Pharmacology database) was 11.5.
“galanin-like peptide (APAHRGRGGWTLNSAGYLLGPVLHLPQMGDQDGKRETALEILDLWKAIDGLPYSHPPQPS; not fully specified; UniProt Q9UBC7 25-84, looked up)”: the pIC50_value is on record as 7.1 (receptor galr1_human (GALR1, P47211), max reported value, ref Guide to Pharmacology database); 7.7 (receptor galr2_human (GALR2, O43603), max reported value, ref Guide to Pharmacology database); 8 (receptor galr3_human (GALR3, O60755), max reported value, ref Guide to Pharmacology database).
For gastric inhibitory polypeptide, under setting [25], the pKd_value was 8.7 and the pKi_value is 9.1.
